Test results taken from patent US10080365B2, “Use of strobilurin type compounds for combating phytopathogenic fungi resistant to Qo inhibitors” (BASF SE, priority 2011, dated 2018).

Columns and labels:
[1] = test system: Septoria tritici (Qo-inhibitor sensitive, wild-type); test: Microtiter test, Septoria tritici Qo-inhibitor sensitive wild-type (Use Example 1); assay type: cell-based; conditions: turbidity at 620 nm, read-out: Sensitive Septoria tritici isolate (wild type) (S-IC50)
Protocol: (§1) The active substances were formulated separately as a stock solution in dimethyl sulfoxide (DMSO) at a concentration of 10 000 ppm.
(§2) Activity against the Septoria blotch pathogen caused by Septoria tritici in the microtiter test
(§3) Fungal strains used: • a) Septoria tritici (Qo-inhibitor sensitive, wild-type) • b) Septoria tritici (Qo-inhibitor-resistant, G143A mutant)
(§4) 100 ml 2% Malt extract in water at pH6.8 were inoculated with microspores from 2 week old cultures grown on 2% malt extract+2% agar in Petri dishes and incubated for 3 days on a rotary shaker at 24° C. und 150 rpm. The culture was harvested, glycerol was added (15% (v/v) and kept frozen at −20° C. in aliquots of 1 ml.
(§5) 1 ml stock suspension was thawed and suspended into 800 ml of 2% malt extract in water at pH 6.8. Compounds were diluted from stock solution in (dimethylsulfoxide) DMSO in 10 steps. The compound solutions were diluted 1/5 with sterile deionized water before use. 5 μl of the compound solutions were transferred into empty microplates. The plates were then filled with 195 μl of the microspore suspension of each strain.
(§6) The antifungal activity was determined by measuring the turbidity of a culture in 96-well microplates in the presence of test compounds. Fungal growth was measured by recording the optical density at 620 nm every 15 h for 150 h. The relative antifungal activity was calculated by comparison of the effect of the test compounds with the effect of a DMSO control and a standard fungicide.
(§7) IC50-values (concentration of test compound resulting in 50% inhibition of fungal growth) were calculated from the resulting dose-response for each compound and strain. The initial concentration of the test compounds and the 10 steps of dilution (1:4 each) allowed IC50-values from 0.001 to 100 μmol/l (μM) to be assessed.

[2] = test system: Septoria tritici (Qo-inhibitor-resistant, G143A mutant); test: Microtiter test, Septoria tritici Qo-inhibitor-resistant G143A mutant (Use Example 1); assay type: cell-based; conditions: for IC50: microtiter test, Qo-inhibitor-resistant G143A mutant, turbidity at 620 nm, read-out: Resistant Septoria tritici isolate (G143A mutation) (R-IC50); for Resistance factor RF = R-IC50/S-IC50: ratio of IC50 for G143A resistant isolate to IC50 for wild-type sensitive isolate
Protocol: as §1, §2, §3, §4, §5, §6, §7

Row | Structure (SMILES) | IC50 [1] | IC50 [2] | Resistance factor RF = R-IC50/S-IC50 [2]
1 | CO/C=C(/C(=O)OC)c1ccccc1Oc1cc(Oc2ccccc2C#N)ncn1 [Azoxystrobin, reference compound] | 3.5 µM | > 100 µM | 
2 | CON=C(C(=O)OC)C(C)=CCOc1ccn(-c2ccc(Cl)cc2)n1 [Compound I-5] | 0.083 µM | 2.2 µM | 26
3 | C=CCON=C(C)c1cc(C)c(OCC=C(C)C(=NOC)C(=O)NC)cc1C [Compound I-82] | 1.1 µM | 6.8 µM | 6
4 | C=CCON=C(C)c1ccc(OCC=C(C)C(=NOC)C(=O)NC)c(C)c1 [Compound I-83] | 1.6 µM | 7.6 µM | 4.6
5 | C=C(Cl)CON=C(C)c1cc(C)c(OCC=C(C)C(=NOC)C(=O)NC)cc1C [Compound I-84] | 0.5 µM | 16.1 µM | 33
6 | C=C(Cl)CON=C(C)c1ccc(OCC=C(C)C(=NOC)C(=O)NC)c(C)c1 [Compound I-85] | 0.8 µM | 22 µM | 29
7 | CC=CCON=C(C)c1cc(C)c(OCC=C(C)C(=NOC)C(=O)NC)cc1C [Compound I-90] | 1 µM | 26 µM | 26
8 | CC=CCON=C(C)c1ccc(OCC=C(C)C(=NOC)C(=O)NC)c(C)c1 [Compound I-91] | 1.6 µM | 27 µM | 17
9 | C=CCON=C(C)c1cc(C)c(OCC=C(C)C(=NOC)C(=O)OC)cc1C [Compound I-94] | 0.6 µM | 12 µM | 22
10 | C=CCON=C(C)c1ccc(OCC=C(C)C(=NOC)C(=O)OC)c(C)c1 [Compound I-95] | 2.2 µM | 29 µM | 14
11 | C=C(Cl)CON=C(C)c1ccc(OCC=C(C)C(=NOC)C(=O)OC)c(C)c1 [Compound I-97] | 1.7 µM | 49 µM | 29
12 | CCON=C(C)c1ccc(OCC=C(C)C(=NOC)C(=O)OC)c(C)c1 [Compound I-191] | 1.3 µM | 37 µM | 29
13 | Cc1cc(-n2cccn2)ccc1OCc1ccccc1-n1nnn(C)c1=O [Compound I-212] | 1.4 µM | 8.3 µM | 6
14 | CC(=NOCc1ccccc1-n1nnn(C)c1=O)c1cccc(-c2cnn(-c3ccccc3)c2)c1 [Compound I-213] | 0.076 µM | 0.057 µM | 0.7
15 | C/C(=N\OC/C=C/Cl)c1ccc(OCc2ccccc2-n2nnn(C)c2=O)c(C)c1 [Compound I-217] | 6.3 µM | 63 µM | 10
16 | C=CCO/N=C(\C)c1ccc(OCc2ccccc2-n2nnn(C)c2=O)c(C)c1 [Compound I-218] | 5.6 µM | 79 µM | 14
17 | C#CCO/N=C(\C)c1ccc(OCc2ccccc2-n2nnn(C)c2=O)c(C)c1 [Compound I-221] | 3.4 µM | 10 µM | 3
18 | C/C(=N\OC/C=C/Cl)c1cc(C)c(OCc2ccccc2-n2nnn(C)c2=O)cc1C [Compound I-223] | 2.7 µM | 19 µM | 7
19 | C=CCO/N=C(\C)c1cc(C)c(OCc2ccccc2-n2nnn(C)c2=O)cc1C [Compound I-224] | 1.7 µM | 5.4 µM | 3.2
20 | C/C=C/CO/N=C(\C)c1cc(C)c(OCc2ccccc2-n2nnn(C)c2=O)cc1C [Compound I-225] | 3.4 µM | 72 µM | 21
21 | C/C(=N\OC/C=C\Cl)c1cc(C)c(OCc2ccccc2-n2nnn(C)c2=O)cc1C [Compound I-228] | 3.4 µM | 10 µM | 3.0
22 | CC(Cc1ccc(Cl)cc1)=NOCc1ccccc1-n1nnn(C)c1=O [Compound I-230] | 3.2 µM | 25 µM | 8
23 | CO/N=C(\C)c1ccc(OCc2ccccc2-n2nnn(C)c2=O)c(C)c1 [Compound I-233] | 0.24 µM | 2.7 µM | 12
24 | CCC/C(=N\OC)c1cc(C)c(OCc2ccccc2-n2nnn(C)c2=O)cc1C [Compound I-234] | 2.4 µM | 4 µM | 1.7

Row | Structure (SMILES) | IC50 [1] | IC50 [2] | Resistance factor RF = R-IC50/S-IC50 [2]
25 | CCC/C(=N\OC)c1ccc(OCc2ccccc2-n2nnn(C)c2=O)c(C)c1 [Compound I-235] | 13 µM | 51 µM | 4
26 | CCON=C(c1ccc(OCc2ccccc2-n2nnn(C)c2=O)c(C)c1)C1CC1 [Compound I-236] | 6 µM | 24 µM | 4
27 | CCON=C(CC)c1ccc(OCc2ccccc2-n2nnn(C)c2=O)c(C)c1 [Compound I-238] | 6 µM | 12 µM | 1.9
28 | Cn1nnn(-c2ccccc2COc2nn(-c3ccc(Cl)cc3)cc2Cl)c1=O [Compound I-243] | 4.1 µM | 15 µM | 3.6
29 | Cc1cn(-c2ccc(Cl)cc2)nc1OCc1ccccc1-n1nnn(C)c1=O [Compound I-244] | 0.6 µM | 1.3 µM | 2.0
30 | Cn1nnn(-c2ccccc2COc2ccn(-c3cccc(C(F)(F)F)c3)n2)c1=O [Compound I-247] | 5 µM | 9 µM | 1.9
31 | CCON=C(C)c1ccc(OCc2ccccc2-n2nnn(C)c2=O)c(C)c1 [Compound I-249] | 2.4 µM | 11 µM | 5
32 | CCCC(=NOCC)c1cc(C)c(OCc2ccccc2-n2nnn(C)c2=O)cc1C [Compound I-250] | 19 µM | 97 µM | 5
33 | CCON=C(C)c1cc(C)c(OCc2ccccc2-n2nnn(CC)c2=O)cc1C [Compound I-255] | 19 µM | 42 µM | 2.2
34 | CCC(=NOC)c1ccc(OCc2ccccc2-n2nnn(CC)c2=O)c(C)c1 [Compound I-256] | 21 µM | 24 µM | 1.1
35 | CCn1nnn(-c2ccccc2COc2cc(C)c(C(C)=NOC)cc2C)c1=O [Compound I-257] | 15 µM | 67 µM | 4.5
36 | Cc1ccc(-n2cc(C)c(OCc3ccccc3-n3nnn(C)c3=O)n2)cc1 [Compound I-260] | 2.3 µM | 3.3 µM | 1.4
37 | CCc1ccc(-n2cc(C)c(OCc3ccccc3-n3nnn(C)c3=O)n2)cc1 [Compound I-261] | 2.9 µM | 5 µM | 1.6
38 | Cc1ccc(-n2cc(C)c(OCc3ccccc3-n3nnn(C)c3=O)n2)cc1C [Compound I-262] | 1 µM | 1.6 µM | 1.6
39 | Cc1ccc(-n2cc(C)c(OCc3ccccc3-n3nnn(C)c3=O)n2)c(C)c1 [Compound I-265] | 3.8 µM | 4 µM | 1.1
40 | Cc1cc(-c2cnco2)c(C)cc1OCc1ccccc1-n1nnn(C)c1=O [Compound I-267] | 2.9 µM | 5 µM | 1.7
41 | Cc1cc(-c2c(C)noc2C)c(C)cc1OCc1ccccc1-n1nnn(C)c1=O [Compound I-269] | 8 µM | 74 µM | 10
42 | Cc1ncc(-c2cc(C)c(OCc3ccccc3-n3nnn(C)c3=O)cc2C)o1 [Compound I-270] | 6 µM | 57 µM | 10
43 | Cc1cc(-c2cnoc2)c(C)cc1OCc1ccccc1-n1nnn(C)c1=O [Compound I-271] | 1.9 µM | 7 µM | 3.9
44 | Cc1c(OCc2ccccc2-n2nnn(C)c2=O)nn2c(C3CC3)cc(C3CC3)nc12 [Compound I-273] | 5 µM | 22 µM | 4
45 | CC(=NOCc1ccccc1-n1nnn(C)c1=O)C(=O)c1ccc(C)c(C)c1 [Compound I-274] | 9 µM | 19 µM | 2.0
46 | CCC(=CCOc1ccn(-c2ccc(Cl)cc2)n1)C(=NOC)C(=O)NC [Compound I-287] | 1.5 µM | 18 µM | 12
47 | CNC(=O)C(=NOC)C(C)=CCOc1ncn(-c2ccc(Cl)cc2)n1 [Compound I-288] | 3.5 µM | 28 µM | 8.0
